Measured values as given in patent US7067508B2, “Diaminedithiol derivatives and radiorhenium or radiotechnetium complex thereof; a liver cancer-treating composition comprising the radiorhenium complex and lipiodol; and a kit for preparation of the liver cancer-treating composition” (Seoul National University Industry Foundation, priority 2001, dated 2006).

Assay: Biodistribution of 188Re-labelled compounds in lipiodol solution in mice after tail vein injection
Format: in vivo
Details: mice (ICR)
Protocol: To the ^188Re-labelled reaction mixture prepared in the foregoing Examples 4 to 6, lipiodol (5 ml) was added, mixed well and the solution was centrifuged at 3000 rpm for 10 min. The supernatant was removed and 2 ml saline was added. After mixing well, the resulting solution was centrifuged again at 3000 rpm for 10 min and the supernatant was removed to recover a lower phase of lipiodol.
Mice (ICR) were administered with an injection of ^188Re-labelled compound in lipiodol solution which was prepared in the Example 7 via the tail vein. Radioactivity distributed in tissues and weight of each tissue were measured to calculate the percentage of radioactivity per gram of unit tissue relative to total radioactivity administered.
As radiation accumulation mechanism in the lung and the liver cancer are similar, it is convenient to detect the level of radiation accumulating in the lung of a mouse suffering from liver cancer. […] Therefore, it can be inferred that a radiorhenium complex of a diaminedithiol derivative having a long side chain is effective for treating liver cancer.

Compound: CCCCCCCC[N+]12CC[N]3CC(C)(C)[S][188Re-]31(=[O])[S]C(C)(C)C2 (centres unmarked) [^188Re-OTDD]
- Biodistribution, radioactivity in Blood (10 min post-injection): 5.2 ± 1.8 percentage of radioactivity per gram
- Biodistribution, radioactivity in Fat (10 min post-injection): 3.6 ± 0.7 percentage of radioactivity per gram
- Biodistribution, radioactivity in Heart (10 min post-injection): 6.3 ± 1.7 percentage of radioactivity per gram
- Biodistribution, radioactivity in Kidney (10 min post-injection): 8.0 ± 1.2 percentage of radioactivity per gram
- Biodistribution, radioactivity in Liver (10 min post-injection): 15.1 ± 2.4 percentage of radioactivity per gram
- Biodistribution, radioactivity in Lung (10 min post-injection): 138.4 ± 19.8 percentage of radioactivity per gram
- Biodistribution, radioactivity in Muscle (10 min post-injection): 1.5 ± 0.2 percentage of radioactivity per gram
- Biodistribution, radioactivity in Small intestine (10 min post-injection): 3.6 ± 0.3 percentage of radioactivity per gram
- Biodistribution, radioactivity in Spleen (10 min post-injection): 2.6 ± 0.3 percentage of radioactivity per gram
- Biodistribution, radioactivity in Stomach (10 min post-injection): 3.5 ± 1.3 percentage of radioactivity per gram
- Biodistribution, radioactivity in Blood (30 min post-injection): 3.8 ± 0.4 percentage of radioactivity per gram
- Biodistribution, radioactivity in Fat (30 min post-injection): 2.2 ± 0.2 percentage of radioactivity per gram
- Biodistribution, radioactivity in Heart (30 min post-injection): 4.4 ± 0.3 percentage of radioactivity per gram
- Biodistribution, radioactivity in Kidney (30 min post-injection): 6.6 ± 0.3 percentage of radioactivity per gram
- Biodistribution, radioactivity in Liver (30 min post-injection): 21.6 ± 4.9 percentage of radioactivity per gram
- Biodistribution, radioactivity in Lung (30 min post-injection): 97.4 ± 20.7 percentage of radioactivity per gram
- Biodistribution, radioactivity in Muscle (30 min post-injection): 1.2 ± 0.2 percentage of radioactivity per gram
- Biodistribution, radioactivity in Small intestine (30 min post-injection): 8.0 ± 2.0 percentage of radioactivity per gram
- Biodistribution, radioactivity in Spleen (30 min post-injection): 2.3 ± 0.1 percentage of radioactivity per gram
- Biodistribution, radioactivity in Stomach (30 min post-injection): 12.9 ± 6.6 percentage of radioactivity per gram
- Biodistribution, radioactivity in Blood (1 hr post-injection): 3.1 ± 0.5 percentage of radioactivity per gram
- Biodistribution, radioactivity in Fat (1 hr post-injection): 1.6 ± 0.4 percentage of radioactivity per gram
- Biodistribution, radioactivity in Heart (1 hr post-injection): 2.7 ± 1.0 percentage of radioactivity per gram
- Biodistribution, radioactivity in Kidney (1 hr post-injection): 5.6 ± 0.9 percentage of radioactivity per gram
- Biodistribution, radioactivity in Liver (1 hr post-injection): 20.1 ± 3.3 percentage of radioactivity per gram
- Biodistribution, radioactivity in Lung (1 hr post-injection): 87.0 ± 13.2 percentage of radioactivity per gram
- Biodistribution, radioactivity in Muscle (1 hr post-injection): 0.9 ± 0.2 percentage of radioactivity per gram
- Biodistribution, radioactivity in Small intestine (1 hr post-injection): 13.0 ± 3.7 percentage of radioactivity per gram
- Biodistribution, radioactivity in Spleen (1 hr post-injection): 1.9 ± 0.6 percentage of radioactivity per gram
- Biodistribution, radioactivity in Stomach (1 hr post-injection): 11.1 ± 3.1 percentage of radioactivity per gram
- Biodistribution, radioactivity in Blood (3 hr post-injection): 2.8 ± 0.3 percentage of radioactivity per gram
- Biodistribution, radioactivity in Fat (3 hr post-injection): 1.3 ± 0.4 percentage of radioactivity per gram
- Biodistribution, radioactivity in Heart (3 hr post-injection): 1.9 ± 0.4 percentage of radioactivity per gram
- Biodistribution, radioactivity in Kidney (3 hr post-injection): 4.0 ± 0.5 percentage of radioactivity per gram
- Biodistribution, radioactivity in Liver (3 hr post-injection): 19.7 ± 6.7 percentage of radioactivity per gram
- Biodistribution, radioactivity in Lung (3 hr post-injection): 61.6 ± 10.0 percentage of radioactivity per gram
- Biodistribution, radioactivity in Muscle (3 hr post-injection): 0.5 ± 0.1 percentage of radioactivity per gram
- Biodistribution, radioactivity in Small intestine (3 hr post-injection): 23.4 ± 0.3 percentage of radioactivity per gram
- Biodistribution, radioactivity in Spleen (3 hr post-injection): 1.8 ± 0.3 percentage of radioactivity per gram
- Biodistribution, radioactivity in Stomach (3 hr post-injection): 15.5 ± 6.6 percentage of radioactivity per gram
- Biodistribution, radioactivity in Blood (24 hr post-injection): 0.6 ± 0.0 percentage of radioactivity per gram
- Biodistribution, radioactivity in Fat (24 hr post-injection): 0.4 ± 0.1 percentage of radioactivity per gram
- Biodistribution, radioactivity in Heart (24 hr post-injection): 0.7 ± 0.1 percentage of radioactivity per gram
- Biodistribution, radioactivity in Kidney (24 hr post-injection): 1.5 ± 0.4 percentage of radioactivity per gram
- Biodistribution, radioactivity in Liver (24 hr post-injection): 7.3 ± 1.5 percentage of radioactivity per gram
- Biodistribution, radioactivity in Lung (24 hr post-injection): 22.8 ± 3.3 percentage of radioactivity per gram
- Biodistribution, radioactivity in Muscle (24 hr post-injection): 0.2 ± 0.0 percentage of radioactivity per gram
- Biodistribution, radioactivity in Small intestine (24 hr post-injection): 19.8 ± 12.0 percentage of radioactivity per gram
- Biodistribution, radioactivity in Spleen (24 hr post-injection): 2.0 ± 2.0 percentage of radioactivity per gram
- Biodistribution, radioactivity in Stomach (24 hr post-injection): 3.6 ± 1.8 percentage of radioactivity per gram
